Measured values taken from PubChem BioAssay (NCI).
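Results reflect a 48-hour exposure of cells in 96-well plates to compound at five concentrations. GI50 marks 50% less growth. TGI denotes the concentration required for complete inhibition of growth.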

Experiments:
Assay in all cases: growth of human tumour cells (NCI), 48 h
BT-549 breast = test system: BT-549 breast
EKVX NSCLC = test system: EKVX NSCLC
HOP-92 NSCLC = test system: HOP-92 NSCLC
IGROV1 ovarian = test system: IGROV1 ovarian
KM12 colon = test system: KM12 colon
M14 melanoma = test system: M14 melanoma
MDA-MB-231 breast = test system: MDA-MB-231 breast
NCI-H460 lung = test system: NCI-H460 lung
T-47D breast = test system: T-47D breast
UACC-257 melanoma = test system: UACC-257 melanoma

| SMILES | GI50 (BT-549 breast) | TGI (BT-549 breast) | GI50 (EKVX NSCLC) | TGI (EKVX NSCLC) | GI50 (HOP-92 NSCLC) | TGI (HOP-92 NSCLC) | GI50 (IGROV1 ovarian) | TGI (IGROV1 ovarian) | GI50 (KM12 colon) | TGI (KM12 colon) | GI50 (M14 melanoma) | TGI (M14 melanoma) | GI50 (MDA-MB-231 breast) | TGI (MDA-MB-231 breast) | GI50 (NCI-H460 lung) | TGI (NCI-H460 lung) | GI50 (T-47D breast) | TGI (T-47D breast) | GI50 (UACC-257 melanoma) | TGI (UACC-257 melanoma) |
| --- | --- | --- | --- | --- | --- | --- | --- | --- | --- | --- | --- | --- | --- | --- | --- | --- | --- | --- | --- | --- |
| CCN1CCN(c2nc(C)cc(N(CCNc3ccnc4cc(Cl)ccc34)Cc3ccc4c(c3)OCO4)n2)CC1 | 1.74 µM | 3.73 µM | 3.14 µM | 13.9 µM | 1.17 µM | 2.67 µM | 2.36 µM | 7.78 µM | 3.97 µM | 15.2 µM | 1.84 µM | 3.44 µM | 1.38 µM | 3.19 µM | 1.94 µM | 4.7 µM | 1.73 µM | 3.87 µM | 1.83 µM | 3.6 µM |
| COc1cc(OC)cc(-c2cc(=O)c3c(OC)c(OC)c(OC)c(OC)c3o2)c1 | – | > 100 µM | – | > 100 µM | – | 90.8 µM | – | > 100 µM | – | – | – | > 100 µM | – | > 100 µM | – | > 100 µM | – | 64.1 µM | – | > 100 µM |
| NS(=O)(=O)c1cc(Br)c(N=Nc2ccc(O)c3ncccc23)c(Br)c1 | – | > 100 µM | – | > 100 µM | – | > 100 µM | – | > 100 µM | – | > 100 µM | – | 76.8 µM | – | > 100 µM | – | > 100 µM | – | 98.8 µM | – | 67.3 µM |
| OCc1ccc(-c2ccc(-c3ccc(CO)s3)o2)s1 | – | 50.7 µM | – | > 96.4 µM | – | 91.2 µM | – | 0.676 µM | – | 85.3 µM | – | > 84.3 µM | – | > 92.2 µM | – | 2.89 µM | – | 7.59 µM | – | 0.0669 µM |
| Cc1cc(O)c(/C=N/C(=S)NCc2ccccc2)c(=O)o1 | – | > 100 µM | – | > 100 µM | – | > 100 µM | – | > 100 µM | – | > 100 µM | – | > 100 µM | – | > 100 µM | – | > 100 µM | – | > 100 µM | – | > 100 µM |
| Nc1ncnc2n[nH]c(Nc3ccc(F)cc3)c12 | 56.7 µM | > 100 µM | 33.6 µM | > 100 µM | 12 µM | 87.4 µM | 4.73 µM | 32.1 µM | 20.3 µM | 86.3 µM | 13.4 µM | > 100 µM | 21.5 µM | 81.2 µM | 16.3 µM | > 100 µM | 21.1 µM | > 100 µM | 67.7 µM | > 100 µM |
| O=C(CCc1nnc2sc(-c3ccc(Cl)cc3Cl)nn12)c1nc2ncccc2[nH]1 | 1.98 µM | 4.36 µM | 2.71 µM | 7.98 µM | 1.19 µM | 2.6 µM | 1.82 µM | 3.8 µM | 1.83 µM | 3.56 µM | 3.35 µM | 16.5 µM | 1.74 µM | 4.36 µM | 1.89 µM | 3.64 µM | 1.47 µM | 5.03 µM | 3 µM | 9.01 µM |
| NC1(C(=O)OCc2ccccc2)CCCC1 | – | 33.8 µM | – | 59.3 µM | – | 38.4 µM | – | 38.8 µM | – | > 100 µM | – | 35.2 µM | – | 36.4 µM | – | > 100 µM | – | > 100 µM | – | 41.9 µM |
| O=C(/C=C/c1ccc(Cl)cc1)c1ccc(Nc2ccnc3cc(Cl)ccc23)cc1 | 29.3 µM | > 100 µM | > 84.6 µM | > 100 µM | > 40.6 µM | > 100 µM | 48.6 µM | > 100 µM | 4.61 µM | 44.3 µM | 26.8 µM | > 100 µM | 20.3 µM | > 58.4 µM | > 57.6 µM | > 100 µM | > 55.7 µM | > 100 µM | > 100 µM | > 100 µM |
| COc1c(Cl)c(=O)oc2ccc(Cl)cc12 | – | > 100 µM | – | > 100 µM | – | > 100 µM | – | > 100 µM | – | > 100 µM | – | > 100 µM | – | > 100 µM | – | > 100 µM | – | > 100 µM | – | > 100 µM |
| CC(C)(C)OC(=O)N[C@H]1CC2(C=C(Cl)C(=O)C(Cl)=C2)OC1=O | – | 29.9 µM | – | 40.9 µM | – | 31.7 µM | – | 36 µM | – | 32 µM | – | 33.7 µM | – | 33.8 µM | – | 56.2 µM | – | 40.5 µM | – | 21.2 µM |
| Cn1cnc([N+](=O)[O-])c1S(=O)(=O)Oc1cccc2ccccc12 | 14.4 µM | 30.7 µM | 13.9 µM | 34.8 µM | 2.6 µM | 11.5 µM | 2.14 µM | 5.09 µM | 10.4 µM | 31.4 µM | 3.17 µM | 10.2 µM | 4.46 µM | 14 µM | 14.7 µM | 36 µM | 1.91 µM | 4.29 µM | 2.36 µM | 6.29 µM |
| CSc1nc(NC2OCC(OC(C)=O)C(OC(C)=O)C2OC(C)=O)c(N=CC=Nc2c(NC3OCC(OC(C)=O)C(OC(C)=O)C3OC(C)=O)nc(SC)[nH]c2=O)c(=O)[nH]1 (stereo not given) | – | > 100 µM | – | > 100 µM | – | > 100 µM | – | > 100 µM | – | > 100 µM | – | > 100 µM | – | > 100 µM | – | > 100 µM | – | > 100 µM | – | > 100 µM |
| CCOC(=O)c1cc2nc3ccccc3c(=O)n2c2ccccc12 | – | > 10 µM | – | > 10 µM | – | > 10 µM | – | > 10 µM | – | > 10 µM | – | > 10 µM | – | > 10 µM | – | > 10 µM | – | > 10 µM | – | > 10 µM |
| COc1ccc(-c2nnc(COc3ccc(NC(=O)Nc4cc(C(F)(F)F)cc(C(F)(F)F)c4)cc3F)o2)cc1 | 2.54 µM | 6.05 µM | – | – | 1.5 µM | 4.58 µM | 2.95 µM | 10.9 µM | 1.51 µM | 3.7 µM | 2.97 µM | 11.4 µM | 1.99 µM | 4.54 µM | 1.66 µM | 4.38 µM | 2.62 µM | 6.94 µM | 2.08 µM | 5.51 µM |
| COc1ccc(-c2nnc(COc3ccc(C(=O)/C=C/c4ccco4)cc3)o2)cc1 | 2.87 µM | 8.16 µM | – | – | 2.9 µM | 16.9 µM | 2.08 µM | 4.38 µM | 1.75 µM | 3.62 µM | 4.03 µM | 14.6 µM | 2.99 µM | 10.4 µM | 3.66 µM | 14 µM | 2.91 µM | 10.8 µM | 2.94 µM | 10.5 µM |
